Experiments:
[1] = test system: P. falciparum stage V male gametocytes (male gamete formation); experiment: P. falciparum dual gamete formation assay (Pf DGFA), male readout (exflagellation), 48 h carry-over format; format: cell-based, Plasmodium falciparum NF54; conditions: primary screen, 2 uM, 48 h incubation, single replicate
Method: (§1) P. falciparum NF54 strain (originally isolated from an imported malaria case in the Netherlands in the 1980s; BEI Resources, cat. no. MRA-1000) asexual and sexual stages culture was performed as previously described. Gametocyte cultures were initiated at 1% asexual ring stage parasitaemia and 4% haematocrit in 40 ml final volume. To induce gametocyte production, complete culture medium (CM) (RPMI 1640 supplemented with 25 mM HEPES, 50 µg ml^−1 hypoxanthine, 2 g l^−1 NaHCO3 and 10% pooled human male type A+ serum) was replaced daily for 14 days without fresh erythrocyte addition. Human serum was obtained from Interstate Blood Bank, A^+ serotype; no aspirin 2 h before drawing and no antimalarials 2 weeks before drawing. On day 14 after culture induction, gametocyte production was assessed by thin smear and Giemsa staining, and exflagellation accurately counted in a haemocytometer. Gametocyte cultures with >0.2% exflagellation (compared to total erythrocyte cell number) were deemed acceptable for use in the Pf DGFA. Note, all human biological samples were sourced ethically and their research use was in accord with the terms of the informed consents under an IRB/EC approved protocol.
(§2) In screening mode, the assay was performed as described in Delves et al.[35] with a mean Z′ factor of 0.56 ± 0.14 (SD) (male) and 0.71 ± 0.17 (SD) (female). Pooled mature gametocyte cultures with the capacity to yield >0.2% exflagellation (of total cells) were diluted in CM to 14 million cells per ml and so that 700,000 cells were dispensed in 50 µl into each well of the warmed 384-well screening plates. Parasites were incubated in the plates with compounds for 48 h in a humidified chamber under 92%N2/5% CO2/3% O2 gas mix before gamete formation was triggered by addition of 10 µl per well ookinete medium (RPMI 1640 supplemented with 25 mM HEPES, 50 µg ml^−1 hypoxanthine, 2 g l^−1 NaHCO3, 100 µM xanthurenic acid) containing 0.5 µg ml^−1 anti-Pfs25 clone 4B7 (BEI Resources, cat. no. MRA-315) conjugated to the fluorophore Cy3 (GE Healthcare), and also by cooling the plate at 4 °C for 4 min and then a further 5 min at 28 °C. Exflagellation was recorded immediately by brightfield microscopy using a Nikon Ti-E widefield microscope at ×4 objective, ×1.5 zoom, recording a 10-frame video time-lapse over 2 s for each well. Afterwards, plates were incubated in the dark at 28 °C for a further 24 h to allow female gametes to maximally express Pfs25 on their surface. Female gamete formation was recorded by single-image fluorescence microscopy using the same microscope and magnification as above. Exflagellation and female gamete formation were quantified by specific algorithms designed with the open-source ICY Image Analysis software.
(§3) Assay performance statistics, such as signal to background ratio, Z′ and robust 3×SD activity cut-off were calculated using templates in ActivityBase XE (IDBS, Guilford, Surrey, UK). Hit population analysis and visualisation were conducted using Spotfire DecisionSite (Spotfire, Inc., Somerville, Massachusetts). The pIC50 (−log IC50) values were obtained using the ActivityBase XE nonlinear regression function in the full curve analysis bundle. In screening mode, the Pf DGFA achieved a mean Z′ factor of 0.56 ± 0.14 (SD) (male) and 0.71 ± 0.17 (SD) (female).

[2] = test system: P. falciparum stage V female gametocytes (female gamete formation); experiment: P. falciparum dual gamete formation assay (Pf DGFA), female readout (Pfs25 expression), 48 h carry-over format; format: cell-based, Plasmodium falciparum NF54; conditions: primary screen, 2 uM, 48 h incubation, single replicate
Method: as §1
as §2, with “Parasites were incubated in the plates with compounds for 48 h in a humidified chamber under” left out
as §3

Compound	%Inhibition Male @2uM [1] [%]	%Inhibition Female @2uM [2] [%]
CN(C)C(=O)CN1CCC(c2c(C(N)=O)sc3ncccc23)C1 (centres unmarked) [DDD01056829]	34.06	<30
CN1CC2(CCC(C(=O)N3CCOCC3)CC2)Oc2ccccc2C1=O (centres unmarked) [DDD01056893]	30.45	<30
O=C(NC1CC1)[C@H]1CN(Cc2ccccc2)C[C@@H]1C(=O)c1ccccc1 [DDD01056910]	31.76	<30
CS(=O)(=O)N1CCCCC1c1ccc(Nc2cnccn2)nc1 (centres unmarked) [DDD01057097]	34.23	<30
CN1CCOC(C)(C(=O)Nc2nccs2)C1 (centres unmarked) [DDD01057393]	32.46	<30
O=C(Cn1cnc2cc3c(cc21)OCCCO3)NCCc1ccccc1 [DDD01057871]	<30	36.66
COc1cccc(CC(=O)N2CCCC2c2nc(=O)c(C)c(C)[nH]2)c1 (centres unmarked) [DDD01059601]	<30	33.02
CNc1cncc(C2CCCN2c2cc(C)ncn2)n1 (centres unmarked) [DDD01059901]	44.44	<30
CC(=O)N1CCCC(c2ccccn2)C1 (centres unmarked) [DDD01059909]	30.93	<30
CN(C)C(=O)CN1CCC(c2cccc(Cc3ccc(F)cc3)n2)CC1 [DDD01060228]	31.41	<30
CC(C)CC(=O)N1CCN(Cc2cc(-c3ccncc3)nn2C)CC1 [DDD01060230]	<30	78.93
OC1(Cn2ccc3ncccc32)CCN(Cc2cc(F)cc(F)c2)CC1 [DDD01060275]	30.37	<30
Cc1cncc(C(=O)N[C@@H]2CC[C@@H](N3CCOCC3)[C@@H]2O)c1 [DDD01060350]	<30	35.23
CC(=O)N1CCN([C@@H]2CC[C@@H](NC(=O)c3cc(C)cs3)[C@H]2O)CC1 [DDD01060352]	<30	32.18
CC(C)(N)C(=O)N1CCCC1c1cncc(Oc2ccccc2)n1 (centres unmarked) [DDD01060400]	<30	49.04
Cc1nc2ccc(C(=O)N3CCn4c(nnc4C4CC4)C3)cc2nc1C [DDD01060815]	<30	31.88
O=C(C1CCCCC1)N1CCC(c2[nH]nc3nccnc23)CC1 [DDD01060967]	<30	38.46
O=C(c1cn[nH]n1)N1CCCC1C1CCCCC1 (centres unmarked) [DDD01061770]	<30	30.76
Cc1noc(C)c1CNC1CCN(c2ccccc2OC(F)F)C1 (centres unmarked) [DDD01061833]	<30	39.11
CN(C)c1ccc(CNC(=O)Nc2ccc(S(=O)(=O)C(F)F)cc2)cc1 [DDD01062359]	<30	41.45
Cc1ccc(OCCCC(=O)Nc2nonc2C)cc1C [DDD01063175]	<30	30.83
Cc1noc(C(C)Nc2ccc3oc(C)nc3c2)n1 (centres unmarked) [DDD01064591]	<30	37.30
CC1CN(C(=O)c2cnn(-c3ccccn3)c2C(C)C)CC(C)(C)O1 (centres unmarked) [DDD01064602]	<30	40.46

Compound	%Inhibition Male @2uM [1] [%]	%Inhibition Female @2uM [2] [%]
CCOc1nnc(CN2CCN(CCOC)C(C)C2)s1 (centres unmarked) [DDD01065018]	30.92	<30
c1cc(NCc2ccsc2)cc(-c2nnc[nH]2)c1 [DDD01065418]	31.81	<30
Cc1nc(C)c(C(=O)N2CCc3c(Cl)cccc32)o1 [DDD01065842]	32.65	<30
Cc1[nH]c(C2(N)CCCCC2)nc(=O)c1C [DDD01066687]	<30	32.19
Cc1ccc(N2CCCC(N(C)Cc3cc(C)on3)C2)nn1 (centres unmarked) [DDD01069945]	<30	39.02
COc1cc(CNC(C)c2cccc(Cl)c2)cc(OC)c1OC (centres unmarked) [DDD01069994]	35.70	<30
COCc1noc(C2(c3cccc(Cl)c3)CCOCC2)n1 [DDD01070409]	71.92	<30
O=C(CNc1cc2c(cc1Cl)OCCO2)NCC(F)(F)F [DDD01070591]	<30	39.90
CCS(=O)(=O)NC1CCCN(c2ccc(F)cc2C)C1=O (centres unmarked) [DDD01074148]	<30	33.10
COC(=O)C1CCCN1C(=O)c1ccc(-n2nc(C)cc2C)cc1 (centres unmarked) [DDD01075977]	<30	33.22
Fc1ccc(-c2nnc(CNC3CCc4ncnn4C3)o2)cc1 (centres unmarked) [DDD01076055]	<30	36.38
Cc1noc(CS(=O)(=O)C(C)C(=O)N(C)c2ccccc2)n1 (centres unmarked) [DDD01076606]	31.49	<30
CN(C)C(=O)c1ccc(NCCNc2ccc3ccccc3n2)nc1 [DDD01076923]	31.80	<30
CN(CC(N)=O)C(=O)C1Cc2cc(Cl)ccc2O1 (centres unmarked) [DDD01077287]	<30	46.87
O=S(=O)(NC1CCCCC12OCCO2)c1cc(F)cc(F)c1 (centres unmarked) [DDD01077321]	<30	41.54
CC(CCc1ccccc1)N1CCC(C(=O)Nc2cnccn2)CC1 (centres unmarked) [DDD01077885]	52.25	<30
CC(C)c1nsc(N2CCc3sccc3C2)n1 [DDD01078291]	38.07	<30
CSc1ccc(OCCN2CCNC(=O)CC2)cc1 [DDD01078342]	<30	31.10
CC(CNC(=O)c1cnc[nH]1)Oc1ccc(Cl)cc1 (centres unmarked) [DDD01078520]	<30	32.98
Cc1cc(C)c(C(=O)N2CCc3c(ncn3CCc3ccccc3)C2)[nH]1 [DDD01078816]	<30	31.51
CCS(=O)(=O)c1ccc(N2CCC(NC(C)=O)CC2)cc1 [DDD01080141]	<30	30.47
CCN(CC)CC(=O)NCCc1csc(N2CCCC2)n1 [DDD01080188]	<30	40.13
Cc1ccc(C2COCCN2C(=O)c2ccc(CN(C)C)cc2)o1 (centres unmarked) [DDD01080189]	<30	41.68
